Laboratory results taken from patent US20240298646A1, “ANTIBIOFILM PRESERVATIVE COMPOSITIONS” (SHARON PERSONAL CARE LTD., priority 2021, published 2024).

Experiments:
Assay in all cases: Minimum inhibitory concentration (MIC) and checkerboard assay
Assay type in all cases: cell-based
Conditions in all cases: unit assumed
[1] = system: P. aeruginosa (ATCC 9027)
Text: (§1) Escherichia coli (ATCC 8739), Staphylococcus aureus (ATCC 6538), P. aeruginosa (ATCC 9027), Candida albicans (ATCC 10231), and Aspergillus brasiliensis (ATCC 16404) were obtained from ATCC and cultured according to the manufacturer's instructions. These microorganisms are routinely used for minimum inhibitory concentration (MIC), checkerboards and challenge tests according to the US and EU recommendations for the efficacy of preservatives in the cosmetic industry. Bacterial strains were maintained in tryptic soy agar (TSA) (Hy-labs, Rehovot, Israel), while yeast and mold strains were maintained in sabouraud dextrose agar (SDA) (Hy-labs, Israel), supplemented with oxytetracycline at a concentration of 1% (Hy-labs, Israel). […] Briefly, growth of E. coli, S. aureus, P. aeruginosa, P. gergoviea, B. cepacia, C. albicans, and A. brasiliensis was observed during incubation with two-fold serial dilutions of the abovementioned compounds in Mueller Hinton (MH) broth, using a 96-well plate (BIOFUL, Israel). For the checkerboard assay using a 96-well plate, decreasing concentrations of one compound were added from top to bottom of the plate using serial dilutions. Decreasing concentrations of the second compound were added to the plate from the right, having the highest concentration, to the left side of the plate with the lowest concentration. […] Bacteria inoculated plates were incubated for 24 h at 32° C. with shaking, while fungi inoculated plates were incubated at 23° C. for 48-72 h with shaking. Microorganism growth was evaluated by a spectrophotometer O.D. reads (BioTek, Israel). The culture is standardized using standard microbiological techniques to have a concentration of very near 1 million cells per milliliter. The antimicrobial agent is diluted a number of times, with Tryptic soy broth or Sabouraud broth for fungi. After the antimicrobial agent had been diluted, a volume of the standardized inoculums was added to each dilution vessel, bringing the microbial concentration to approximately 1,000,000 cells per milliliter. The inoculated, serially diluted antimicrobial agent was incubated at an appropriate temperature for the test organism, 24 hours for bacteria 48 for yeast and 72 for mold. […] The microorganism strains used for the test were E. coli ATCC 8739, P. aeruginosa ATCC 9027, S. aureus ATCC 6538, C. albicans ATCC 10231, A. brasiliensis ATCC 16404. Measuring synergy between preservatives can be done by the widely described Fractional Inhibitory Concentration Index (FICI). While the MIC is defined as the lowest concentration of molecule alone or in combination that inhibited visible growth, the in vitro interactions can be quantified as FICI and calculated using the following formula: […]

[2] = system: Staphylococcus aureus (ATCC 6538)
Text: as §1

[3] = system: Escherichia coli (ATCC 8739)
Text: as §1

[4] = system: Candida albicans (ATCC 10231)
Text: (§2) Escherichia coli (ATCC 8739), Staphylococcus aureus (ATCC 6538), P. aeruginosa (ATCC 9027), Candida albicans (ATCC 10231), and Aspergillus brasiliensis (ATCC 16404) were obtained from ATCC and cultured according to the manufacturer's instructions. These microorganisms are routinely used for minimum inhibitory concentration (MIC), checkerboards and challenge tests according to the US and EU recommendations for the efficacy of preservatives in the cosmetic industry. Bacterial strains were maintained in tryptic soy agar (TSA) (Hy-labs, Rehovot, Israel), while yeast and mold strains were maintained in sabouraud dextrose agar (SDA) (Hy-labs, Israel), supplemented with oxytetracycline at a concentration of 1% (Hy-labs, Israel). […] Briefly, growth of E. coli, S. aureus, P. aeruginosa, P. gergoviea, B. cepacia, C. albicans, and A. brasiliensis was observed during incubation with two-fold serial dilutions of the abovementioned compounds in Mueller Hinton (MH) broth, using a 96-well plate (BIOFUL, Israel). For the checkerboard assay using a 96-well plate, decreasing concentrations of one compound were added from top to bottom of the plate using serial dilutions. Decreasing concentrations of the second compound were added to the plate from the right, having the highest concentration, to the left side of the plate with the lowest concentration. […] Bacteria inoculated plates were incubated for 24 h at 32° C. with shaking, while fungi inoculated plates were incubated at 23° C. for 48-72 h with shaking. Microorganism growth was evaluated by a spectrophotometer O.D. reads (BioTek, Israel). In additional exemplary procedure, MIC evaluation test with Candida albicans was performed in test tubes. Growth in this case is visually evaluated. A pure culture of a single microorganism was grown in Tryptic soy broth, or Sabouraud dextrose broth for yeast and mold. […] While the MIC is defined as the lowest concentration of molecule alone or in combination that inhibited visible growth, the in vitro interactions can be quantified as FICI and calculated using the following formula: […]

[5] = system: Aspergillus brasiliensis (ATCC 16404)
Text: as §2, with “In another” for “In additional”, “with A. brasiliensis” for “with Candida albicans”, “Sabouraud” for “Sabouraud dextrose”

MIC P. aeruginosa [1]	MIC S. aureus [2]	MIC E. coli [3]	MIC C. albicans [4]	MIC A. brasiliensis [5]	Structure (SMILES)
> 5000 µg/mL	2500 µg/mL	5000 µg/mL	2500 µg/mL	1250 µg/mL	CCCCC(CC)COCC(O)CO (stereo not drawn) [EHG, ethylhexylglycerin]
1250 µg/mL	5000 µg/mL	5000 µg/mL	1880 µg/mL	1250 µg/mL	Cc1occc(=O)c1O [Maltol, maltol]

Structure (SMILES)	MIC P. aeruginosa [1]	MIC S. aureus [2]	MIC E. coli [3]	MIC C. albicans [4]	MIC A. brasiliensis [5]
CC(=O)[O-].CC(=O)[O-].[Zn+2] [Zinc Acetate, zinc acetate]	312 µg/mL	160 µg/mL	312 µg/mL	110 µg/mL	100 µg/mL
